# Reference: patent US8309319B2, “Fluorescent probe for measurement of UDP-glucuronosyltransferase” (The University of Tokyo, priority 2007, dated 2012)
# What was measured:
# UGT1A1 [1] = target: T1, UGT1A1 (Homo sapiens, UniProt P22309); assay: Reactivity of fluorescence increasing (d-PeT) type probes with UGT1A1; type: biochemical; design: host or cells: microsomes expressing UGT1A1; conditions: FIG. 4
# T1 sequence (P22309 26-533): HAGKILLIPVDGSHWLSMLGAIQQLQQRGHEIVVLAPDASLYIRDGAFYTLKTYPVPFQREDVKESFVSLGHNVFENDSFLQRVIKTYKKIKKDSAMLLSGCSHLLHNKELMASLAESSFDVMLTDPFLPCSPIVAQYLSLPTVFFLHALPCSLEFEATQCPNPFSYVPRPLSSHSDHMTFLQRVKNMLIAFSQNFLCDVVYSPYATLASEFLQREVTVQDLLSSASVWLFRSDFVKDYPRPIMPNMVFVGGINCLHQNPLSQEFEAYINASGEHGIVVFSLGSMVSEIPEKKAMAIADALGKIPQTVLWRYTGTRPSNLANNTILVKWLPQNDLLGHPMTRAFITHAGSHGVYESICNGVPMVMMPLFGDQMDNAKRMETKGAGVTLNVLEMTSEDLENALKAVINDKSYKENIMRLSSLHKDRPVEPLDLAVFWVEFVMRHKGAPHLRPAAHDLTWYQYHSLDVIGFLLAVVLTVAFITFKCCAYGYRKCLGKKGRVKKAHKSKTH
# Procedure: The fluorescein derivatives of fluorescence decreasing type, of which fluorescence is decreased by a reaction with UGT, were obtained in Examples 1 and 2. Further researches were conducted in order to provide fluorescein derivatives of fluorescence increasing type of which fluorescence is increased by a reaction with UGT. Functionally, the structure of fluorescein can be recognized as two parts having different functions, i.e. the benzene ring moiety and the xanthene ring moiety. By appropriately choosing substituents on the benzene ring moiety among them, fluorescence thereof can be controlled by using PeT (J. Am. Chem. Soc., 123, pp. 2530-2536, 2001). […] Therefore, it is considered that there can be developed a fluorescence increasing type fluorescein derivative of which fluorescence is quenched by PeT before the reaction with UGT when the fluorescein derivative is a phenolate type, and fluorescence is emitted after the reaction with UGT when the fluorescein derivative is an O-glycoside type, by appropriately choosing the substituents on the benzene ring moiety (J. Am. Chem. Soc., 126, pp. 14079-14085, 2004). From such a point of view, 6-carboxyfluorescein dimethyl ester and 5,6-dicarboxyfluorescein trimethyl ester were designed as fluorescence increasing (d-PeT) type fluorescein derivatives, and reactivity thereof with UGT1A1 was confirmed.
# UGT1A1 [2] = target: T1, UGT1A1; assay: Reactivity with UGT1A1, fluorescence method (decrease in fluorescence intensity); conditions: 37° C.
# UGT1A1 [3] = target: T1, UGT1A1; assay: Reactivity with UGT1A1, absorbance method (decrease of absorbance); type: biochemical; design: host or cells: microsomes expressing UGT1A1; conditions: probe 10 μM, absorbance at 480 to 510 nm; compared with 2-Me-4-OMe-TG
# [4] = probe 1 μM, excitation 480 to 510 nm
smiles,measurement,setting,value
"COC(=O)c1cc(C(=O)OC)c(-c2c3ccc(=O)cc-3oc3cc(O)ccc23)cc1C(=O)OC [5,6-dicarboxyfluorescein trimethyl ester]",change of fluorescence intensity with passage of the reaction time,UGT1A1 [1],increase of fluorescence intensity was observed
COC(=O)c1ccc(C(=O)OC)c(-c2c3ccc(=O)cc-3oc3cc(O)ccc23)c1 [6-carboxyfluorescein dimethyl ester],change of fluorescence intensity with passage of the reaction time,UGT1A1 [1],increase of fluorescence intensity was observed
Nc1ccccc1-c1c2ccc(=O)cc-2oc2cc(O)ccc12 [Derivative 6],reactivity with UGT1A1,"UGT1A1 [2]; UGT1A1 microsomes 0.1 mg/mL, UDP-glucuronic acid 2 mM, probe 1 μM (fluorescence) or 10 μM (absorbance)",weak
COc1ccc(-c2c3ccc(=O)cc-3oc3cc(O)ccc23)c(C)c1 [Derivative 11],decrease of fluorescence intensity to,UGT1A1 [2]; [4],≤ 0.1%
same,decrease rate of fluorescence,UGT1A1 [2]; [4],high decrease rate of fluorescence
Cc1ccc(-c2c3ccc(=O)cc-3oc3cc(O)ccc23)c([N+](=O)[O-])c1 [Derivative 15],decrease rate of absorbance,UGT1A1 [3],higher decrease rate of absorbance
